In the assay the target is Furin (Homo sapiens, UniProt P09958).

A value given as a limit tells only on which side of the number the result lay.

Chain of Furin (P09958 whole entry): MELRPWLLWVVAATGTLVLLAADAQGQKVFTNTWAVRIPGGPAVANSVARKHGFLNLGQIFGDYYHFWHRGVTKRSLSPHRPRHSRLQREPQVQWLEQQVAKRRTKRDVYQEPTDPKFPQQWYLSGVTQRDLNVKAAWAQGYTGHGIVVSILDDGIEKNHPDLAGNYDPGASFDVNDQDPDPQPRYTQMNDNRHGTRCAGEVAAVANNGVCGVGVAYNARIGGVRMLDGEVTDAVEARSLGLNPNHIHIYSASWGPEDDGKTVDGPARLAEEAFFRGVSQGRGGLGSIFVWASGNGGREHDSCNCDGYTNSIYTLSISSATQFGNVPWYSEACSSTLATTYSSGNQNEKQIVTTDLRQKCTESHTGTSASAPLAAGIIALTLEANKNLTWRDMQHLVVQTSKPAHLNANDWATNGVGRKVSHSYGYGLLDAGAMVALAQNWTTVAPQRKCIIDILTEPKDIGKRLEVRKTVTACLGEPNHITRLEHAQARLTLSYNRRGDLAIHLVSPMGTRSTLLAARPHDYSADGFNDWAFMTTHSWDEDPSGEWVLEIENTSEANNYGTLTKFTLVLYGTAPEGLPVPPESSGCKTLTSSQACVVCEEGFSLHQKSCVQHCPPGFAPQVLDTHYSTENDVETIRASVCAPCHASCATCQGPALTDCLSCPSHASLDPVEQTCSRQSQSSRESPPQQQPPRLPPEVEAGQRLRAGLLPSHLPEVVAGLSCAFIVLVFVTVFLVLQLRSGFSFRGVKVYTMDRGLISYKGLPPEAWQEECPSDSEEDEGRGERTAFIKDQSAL

`CC[C@H](NC(=O)[C@H](CCCNC(=N)N)NC(=O)[C@H](CCC(N)=O)NC(=O)[C@@H]1CCCN1C(=O)[C@@H](N)[C@@H](C)O)C(=O)N[C@@H](CCCNC(=N)N)C(=O)N[C@@H](CCCNC(=N)N)C(=O)N[C@@H](CCCNC(=N)N)C(=O)N[C@@H](CCCCN)C(=O)N[C@@H](CCCCN)C(=O)N[C@@H](CCCNC(=N)N)C(=O)NCC(=O)O` gave a Ki above 100 nM. In turn, `C[C@H](NC(=O)[C@H](CCCNC(=N)N)NC(=O)[C@H](CCC(N)=O)NC(=O)[C@@H]1CCCN1C(=O)[C@@H](N)[C@@H](C)O)C(=O)N[C@@H](CCCNC(=N)N)C(=O)N[C@@H](CCCNC(=N)N)C(=O)N[C@@H](CCCNC(=N)N)C(=O)N[C@@H](CCCCN)C(=O)N[C@@H](CCCCN)C(=O)N[C@@H](CCCNC(=N)N)C(=O)N[C@H](CCCNC(=N)N)C(=O)O` showed a Ki above 100 nM. As for `C[C@H](NC(=O)[C@H](CCCN=C(N)N)NC(=O)[C@H](CCC(N)=O)NC(=O)[C@@H]1CCCN1C(=O)[C@@H](N)[C@@H](C)O)C(=O)N[C@@H](CCCN=C(N)N)C(=O)N[C@@H](CCCN=C(N)N)C(=O)N[C@@H](CCCN=C(N)N)C(=O)N[C@@H](CCCCN)C(=O)N[C@@H](CCCCN)C(=O)N[C@@H](CCCN=C(N)N)C(=O)NCC(=O)O`, the Ki was above 100 nM. The result for `C[C@H](NC(=O)[C@H](CCCN=C(N)N)NC(=O)[C@@H]1CCCN1C(=O)[C@@H](N)[C@@H](C)O)C(=O)N[C@@H](CCCN=C(N)N)C(=O)N[C@@H](CCCN=C(N)N)C(=O)N[C@@H](CCCN=C(N)N)C(=O)N[C@@H](CCCCN)C(=O)N[C@@H](CCCCN)C(=O)N[C@@H](CCCN=C(N)N)C(=O)N(C)CC(=O)O` reads above 100 nM; that for `CSCC[C@H](NC(=O)[C@H](CCCN=C(N)N)NC(=O)[C@H](CCC(N)=O)NC(=O)[C@@H]1CCCN1C(=O)[C@@H](N)[C@@H](C)O)C(=O)N[C@@H](CCCN=C(N)N)C(=O)N[C@@H](CCCN=C(N)N)C(=O)N[C@@H](CCCN=C(N)N)C(=O)N[C@@H](CCCCN)C(=O)N[C@@H](CCCCN)C(=O)N[C@@H](CCCNC(=N)N)C(=O)NCC(=O)O`, above 100 nM.

Regarding `C[C@@H](N)C(=O)N1CCC[C@H]1C(=O)N[C@@H](CCCNC(=N)N)C(=O)N[C@@H](CCC(=O)O)C(=O)N[C@@H](CCCNC(=N)N)C(=O)N[C@@H](CCCNC(=N)N)C(=O)N[C@@H](CCCNC(=N)N)C(=O)N[C@@H](CCCCN)C(=O)N[C@@H](CCCCN)C(=O)N[C@@H](CCCNC(=N)N)C(=O)NCC(N)=O`, the Ki is above 100 nM. The result for `C[C@@H](O)[C@H](N)C(=O)N1CCC[C@H]1C(=O)N[C@@H](CCC(N)=O)C(=O)N[C@@H](CCCNC(=N)N)C(=O)NCCC(=O)N[C@@H](CCCN=C(N)N)C(=O)N[C@@H](CCCN=C(N)N)C(=O)N[C@@H](CCCN=C(N)N)C(=O)N[C@@H](CCCCN)C(=O)N[C@@H](CCCCN)C(=O)N[C@@H](CCCNC(=N)N)C(=O)NCC(=O)O` reads above 100 nM; that for `C[C@H](NC(=O)[C@H](CCCNC(=N)N)NC(=O)[C@H](CCC(N)=O)NC(=O)[C@@H]1CCCN1C(=O)[C@@H](N)[C@@H](C)O)C(=O)N[C@@H](CCCNC(=N)N)C(=O)N[C@@H](CCCNC(=N)N)C(=O)N[C@@H](CCCNC(=N)N)C(=O)N[C@@H](CCCCN)C(=O)N[C@@H](CCCCN)C(=O)N[C@@H](CCCNC(=N)N)C(=O)N[C@@H](CCCCN)C(=O)O`, above 100 nM; that for `C[C@@H](O)[C@H](N)C(=O)N1CCC[C@H]1C(=O)N[C@@H](CCC(N)=O)C(=O)N[C@@H](CCCNC(=N)N)C(=O)N[C@@H](CCCNC(N)=O)C(=O)N[C@@H](CCCNC(=N)N)C(=O)N[C@@H](CCCNC(=N)N)C(=O)N[C@@H](CCCNC(=N)N)C(=O)N[C@@H](CCCCN)C(=O)N[C@@H](CCCCN)C(=O)N[C@@H](CCCNC(=N)N)C(=O)NCC(=O)O`, above 100 nM. Turning to `C[C@@H](O)[C@H](N)C(=O)N1CCC[C@H]1C(=O)N[C@@H](CCC(N)=O)C(=O)N[C@@H](CCCNC(=N)N)C(=O)NCCCCCC(=O)N[C@@H](CCCNC(=N)N)C(=O)N[C@@H](CCCNC(=N)N)C(=O)N[C@@H](CCCNC(=N)N)C(=O)N[C@@H](CCCCN)C(=O)N[C@@H](CCCCN)C(=O)N[C@@H](CCCNC(=N)N)C(=O)NCC(=O)O`, the Ki is above 100 nM. Take `C[C@H](NC(=O)[C@H](C)NC(=O)[C@H](CCCN=C(N)N)NC(=O)[C@H](CCCN=C(N)N)NC(=O)[C@H](CCCN=C(N)N)NC(=O)[C@H](CCC(=O)O)NC(=O)[C@H](CCCN=C(N)N)NC(=O)[C@@H]1CCCN1C(=O)[C@@H](N)[C@@H](C)O)C(=O)N[C@@H](CCCN=C(N)N)C(=O)O`: the Ki is above 100 nM.

`C[C@H](NC(=O)[C@H](CCCN=C(N)N)NC(=O)[C@@H]1CCCN1C(=O)[C@@H](N)[C@@H](C)O)C(=O)N[C@@H](CCCN=C(N)N)C(=O)N[C@@H](CCCN=C(N)N)C(=O)N[C@@H](CCCN=C(N)N)C(=O)N[C@@H](CCCCN)C(=O)N[C@@H](CCCCN)C(=O)N[C@@H](CCCN=C(N)N)C(=O)O` registered a Ki of 138 nM. As for `C[C@@H](O)[C@H](N)C(=O)N1CCC[C@H]1C(=O)N[C@@H](CCC(N)=O)C(=O)N[C@@H](CCCN=C(N)N)C(=O)N[C@@H](CC1CCCCC1)C(=O)N[C@@H](CCCN=C(N)N)C(=O)N[C@@H](CCCN=C(N)N)C(=O)N[C@@H](CCCN=C(N)N)C(=O)N[C@@H](CCCCN)C(=O)N[C@@H](CCCCN)C(=O)N[C@@H](CCCNC(=N)N)C(=O)NCC(=O)O`, the inhibition constant (Ki) was above 100 nM. `C[C@@H](O)[C@H](N)C(=O)N1CCC[C@H]1C(=O)N[C@@H](CCC(N)=O)C(=O)N[C@@H](CCCN=C(N)N)C(=O)N[C@@H](CCCN=C(N)N)C(=O)N[C@@H](CCCN=C(N)N)C(=O)N[C@@H](CCCN=C(N)N)C(=O)N[C@@H](CCCN=C(N)N)C(=O)N[C@@H](CCCCN)C(=O)N[C@@H](CCCCN)C(=O)N[C@@H](CCCNC(=N)N)C(=O)NCC(=O)O` gave a Ki above 100 nM. The result for `C[C@@H](O)[C@H](N)C(=O)N1CCC[C@H]1C(=O)N[C@@H](CCC(N)=O)C(=O)N[C@@H](CCCN=C(N)N)C(=O)N[C@H](CCCCN)C(=O)N[C@@H](CCCN=C(N)N)C(=O)N[C@@H](CCCN=C(N)N)C(=O)N[C@@H](CCCN=C(N)N)C(=O)N[C@@H](CCCCN)C(=O)N[C@@H](CCCCN)C(=O)N[C@@H](CCCNC(=N)N)C(=O)NCC(=O)O` reads above 100 nM. `C[C@@H](O)[C@H](N)C(=O)N1CCC[C@H]1C(=O)N[C@@H](CCC(N)=O)C(=O)N[C@@H](CCCN=C(N)N)C(=O)N[C@H](CCCN=C(N)N)C(=O)N[C@@H](CCCN=C(N)N)C(=O)N[C@@H](CCCN=C(N)N)C(=O)N[C@@H](CCCN=C(N)N)C(=O)N[C@@H](CCCCN)C(=O)N[C@@H](CCCCN)C(=O)N[C@@H](CCCNC(=N)N)C(=O)NCC(=O)O` registered a Ki above 100 nM. As to `C[C@@H](O)[C@H](N)C(=O)N1CCC[C@H]1C(=O)N[C@@H](CCC(N)=O)C(=O)N[C@@H](CCCNC(=N)N)C(=O)NC1(C(=O)N[C@@H](CCCNC(=N)N)C(=O)N[C@@H](CCCNC(=N)N)C(=O)N[C@@H](CCCNC(=N)N)C(=O)N[C@@H](CCCCN)C(=O)N[C@@H](CCCCN)C(=O)NC2(C(=O)NCC(=O)O)CCCC2)CCCC1`, the inhibition constant Ki is above 100 nM. In turn, `C[C@@H](O)[C@H](N)C(=O)N1CCC[C@H]1C(=O)N[C@@H](CCC(N)=O)C(=O)N[C@@H](CCCN=C(N)N)C(=O)N[C@H](CCC(=O)O)C(=O)N[C@@H](CCCN=C(N)N)C(=O)N[C@@H](CCCN=C(N)N)C(=O)N[C@@H](CCCN=C(N)N)C(=O)N[C@@H](CCCCN)C(=O)N[C@@H](CCCCN)C(=O)N[C@@H](CCCNC(=N)N)C(=O)NCC(=O)O` registered a Ki above 100 nM.

Take `C[C@H](NC(=O)[C@H](CCCNC(=N)N)NC(=O)[C@H](CCC(N)=O)NC(=O)[C@@H]1CCCN1C(=O)[C@@H](N)[C@@H](C)O)C(=O)N[C@@H](CCCNC(=N)N)C(=O)N[C@@H](CCCNC(=N)N)C(=O)N[C@@H](CCCNC(=N)N)C(=O)N[C@@H](CCCCN)C(=O)N[C@@H](CCCCN)C(=O)N[C@@H](CCCNC(=N)N)C(=O)N[C@H](CCCCN)C(=O)O`: the inhibition constant (Ki) was above 100 nM. The result for `C[C@H](NC(=O)[C@H](CCCN=C(N)N)NC(=O)[C@H](CCC(N)=O)NC(=O)[C@@H]1CCCN1C(=O)[C@@H](N)[C@@H](C)O)C(=O)N[C@@H](CCCN=C(N)N)C(=O)N[C@@H](CCCN=C(N)N)C(=O)N[C@@H](CCCN=C(N)N)C(=O)N[C@@H](CCCCN)C(=O)N[C@@H](CCCCN)C(=O)N[C@@H](CCCN=C(N)N)C(=O)N[C@@H](CCCN=C(N)N)C(=O)O` reads above 100 nM. Turning to `CSC[C@H](NC(=O)[C@H](CCCNC(=N)N)NC(=O)[C@H](CCC(N)=O)NC(=O)[C@@H]1CCCN1C(=O)[C@@H](N)[C@@H](C)O)C(=O)N[C@@H](CCCNC(=N)N)C(=O)N[C@@H](CCCNC(=N)N)C(=O)N[C@@H](CCCNC(=N)N)C(=O)N[C@@H](CCCCN)C(=O)N[C@@H](CCCCN)C(=O)N[C@@H](CCCNC(=N)N)C(=O)NCC(=O)O`, the Ki was above 100 nM. The result for `CCCC[C@H](NC(=O)[C@H](CCCNC(=N)N)NC(=O)[C@H](CCC(N)=O)NC(=O)[C@@H]1CCCN1C(=O)[C@@H](N)[C@@H](C)O)C(=O)N[C@@H](CCCNC(=N)N)C(=O)N[C@@H](CCCNC(=N)N)C(=O)N[C@@H](CCCNC(=N)N)C(=O)N[C@@H](CCCCN)C(=O)N[C@@H](CCCCN)C(=O)N[C@@H](CCCNC(=N)N)C(=O)NCC(=O)O` reads above 100 nM.

`C[C@@H](O)[C@H](N)C(=O)N1CCC[C@H]1C(=O)N[C@@H](CCC(N)=O)C(=O)N[C@@H](CCCN=C(N)N)C(=O)NC1(C(=O)N[C@@H](CCCN=C(N)N)C(=O)N[C@@H](CCCN=C(N)N)C(=O)N[C@@H](CCCN=C(N)N)C(=O)N[C@@H](CCCCN)C(=O)N[C@@H](CCCCN)C(=O)N[C@@H](CCCNC(=N)N)C(=O)NCC(=O)O)CCCC1` returned a Ki above 100 nM.

On to `C[C@H](NC(=O)[C@H](C)NC(=O)[C@H](CCCN=C(N)N)NC(=O)[C@H](CCCN=C(N)N)NC(=O)[C@H](CCCN=C(N)N)NC(=O)[C@H](CCC(=O)O)NC(=O)[C@H](CCCN=C(N)N)NC(=O)[C@@H]1CCCN1C(=O)[C@@H](N)[C@@H](C)O)C(=O)N[C@@H](CCCN=C(N)N)C(=O)N(C)CC(=O)O`, for which the Ki was above 100 nM. Molecule `C[C@H](NC(=O)[C@H](C)NC(=O)[C@H](CCCNC(=N)N)NC(=O)[C@H](CCCNC(=N)N)NC(=O)[C@H](CCCNC(=N)N)NC(=O)[C@H](CCC(=O)O)NC(=O)[C@H](CCCNC(=N)N)NC(=O)[C@@H]1CCCN1C(=O)[C@@H](N)[C@@H](C)O)C(=O)N[C@@H](CCCNC(=N)N)C(=O)NCC(=O)O` gave a Ki above 100 nM. Then `CC(C)C[C@H](NC(=O)[C@H](CCCNC(=N)N)NC(=O)[C@H](CCC(N)=O)NC(=O)[C@@H]1CCCN1C(=O)[C@@H](N)[C@@H](C)O)C(=O)N[C@@H](CCCNC(=N)N)C(=O)N[C@@H](CCCNC(=N)N)C(=O)N[C@@H](CCCNC(=N)N)C(=O)N[C@@H](CCCCN)C(=O)N[C@@H](CCCCN)C(=O)N[C@@H](CCCNC(=N)N)C(=O)NCC(=O)O`, with above 100 nM.

As usually defined, the Ki is a measure of affinity in units of concentration, obtained from inhibition or displacement.
